Experimental data reported in US11247976B2, “Synthetic ligands that modulate the activity of the RhlR quorum sensing receptor” (Wisconsin Alumni Research Foundation, priority 2016, dated 2022).
Entries after “also recorded” stand apart in the source; their conditions may differ. Where two headings read alike, the source gives them in different places. Marks after values point to notes of the source that are not given here.

Assays:
RhlR [1] = target: T1, RhlR (Pseudomonas aeruginosa, UniProt P54292); assay: E. coli RhlR reporter agonism assay (JLD271/pJN105R2/pSC11-rhlI*); type: cell-based, P. aeruginosa; conditions: for activation at 10 µM: compound at 10 μM, RhlR activity relative to 1 mM BHL; for Emax: read-out: Maximum Activation (%); for RhlR agonist potency in words: dose-response; for RhlR agonist activity in words: single-concentration screen at 10 μM
T1 construct: expressed in transfected cells; host or cells: E. coli JLD271 (ΔsdiA) with pJN105R2 (arabinose-induced) and pSC11-rhlI*
Protocol: (§1) All media and reagents for bacterial culture were purchased from commercial sources. Bacteria were cultured in Luria-Bertani broth (LB) at 37° C. with shaking at 200 rpm unless otherwise noted. The bacterial reporter strains used for this study were (i) the heterologous E. coli strain JLD271 (ΔsdiA) harboring the RhlR expression plasmid pJN105R2 and the rhlI-lacZ transcriptional fusion reporter pSC11-rhlI*, (ii) the heterologous E. coli strain JLD271 (ΔsdiA) harboring the LasR expression plasmid pJN105L and the […] transcriptional fusion reporter pSC11, and (iii) the P. aeruginosa strain PAO-JP2 (ΔlasrhlI) harboring the rhlI-gfp transcriptional fusion reporter prhlI-LVAgfp. Reporter strains JLD271/pJN105R2/pSC11-rhlI* and JLD271/pJN105L/pSC11 were grown in LB containing 100 μg/mL ampicillin and 10 μg/mL gentamicin. Freezer stocks of bacterial strains were maintained at −80° C. in 1:1 LB:50% glycerol.
(§2) To evaluate the modulatory activities of library compounds on RhlR and LasR using E. coli reporters, the strains JLD271/pJN105R2/pSC11-rhlI* and JLD271/pJN105L/pSC11 were used, respectively, as previously described.^38, 51 The following modifications were used in the RhlR agonism reporter assay, non-native compounds (10 μM or 1 mM) were compared to 1 mM BHL as the positive control. Briefly, a subculture was prepared by diluting an overnight culture 1:10 with fresh media containing 100 μg/mL ampicillin and 10 μg/mL gentamicin, and was incubated until it had grown to OD600=0.45. In all assays, L-arabinose was added to a final concentration of 4 mg/mL to induce RhlR expression. For RhlR agonism assays, activities of test compounds were measured relative to 1 mM BHL (the concentration required to induce a maximal level of RhlR activity). For RhlR antagonism assays, test compounds were competed against a concentration of BHL approximately equal to its EC50 value (10 μM). Activity was measured relative to 10 μM BHL. Inhibition was calculated by subtracting 100% from the relative activity value. Thus, 0% inhibition mimics represents no competitive displacement of 10 μM BHL by a test compound. In all assays, modifications were made to the standard Miller assay protocol to accommodate the use of the chlorophenol red-β-D-galactopyranoside (CPRG) β-galactosidase substrate. After cell lysis, 150 μL of the aqueous layer was transferred from each well of a solvent-resistant 96-well microtiter plate to the wells of a new clear, flat-bottom 96-well microtiter plate. CPRG (4 mg/mL in phosphate-buffered saline) was added to each well in 25 μL volumes. Plates were incubated at 30° C. until the positive control wells developed a red color (approximately 30 min). The amount of processed CPRG substrate was assessed by measuring the absorbance of each well at 570 nm. Enzymatic activity was calculated using the following equation: adjusted Miller units=1000·Abs570/(OD600·t·V),
(§3) where t is the incubation time of substrate with lysate and V is the volume of culture lysed.
Because LuxR-type receptors are often unstable in solution, preventing the use of in vitro assays to directly assess small molecule agonism and antagonism, reporter gene assays represent a standard method for screening small-molecule libraries for LuxR-type receptor modulation. Previously reported strains for this purpose were used in the current study.^38 Synthetic N-butanoyl L-homoserine lactone (BHL), the native ligand of RhlR, was used as the positive control for receptor activation. Commonly, agonists are measured relative to maximum possible receptor activation within a particular assay medium;^40 because the dose-response curve of BHL is distinctly shallow in these RhlR reporters, a high concentration of BHL is required to maximally activate RhlR. In this study, activation of compounds was measured relative to that elicited by 1 mM BHL (the concentration of BHL used causes no aberrant growth effects in the reporter strain). […]

LasR = target: T2, LasR (Pseudomonas aeruginosa, UniProt P25084); assay: Selectivity of RhlR agonism over LasR agonism (E. coli LasR reporter JLD271/pJN105L/pSC11); type: cell-based, P. aeruginosa; conditions: RhlR % activity divided by LasR % activity, > = negligible activity in LasR reporter
T2 construct: expressed in transfected cells; host or cells: E. coli JLD271 (ΔsdiA) with pJN105L and pSC11
Protocol: as §1, §2
LasR assays were processed using the protocol for the substrate ortho-nitrophenyl-β-galactoside (ONPG) as previously described elsewhere.^53; and LasR antagonism assays were performed versus the EC50 for OdDHL (2 nM).
The selectivity of certain compounds for RhlR over LasR was measured using a LasR reporter strain (details above). Table 6 provides a comparison of selectivity of RhlR agonism over LasR agonism for exemplary compounds. Table 7 provides a comparison of selectivity of RhlR antagonism over LasR antagonism for exemplary compounds.

RhlR [2] = target: T1, RhlR; assay: P. aeruginosa RhlR reporter agonism assay (PAO-JP2/prhlI-LVAgfp); type: cell-based; conditions: for Emax: read-out: Maximum Activation (%)
RhlR [3] = target: T1, RhlR; assay: E. coli RhlR reporter antagonism assay vs 10 μM BHL (JLD271/pJN105R2/pSC11-rhlI*); type: cell-based, P. aeruginosa; conditions: for inhibition at 10 µM: read-out: % inhibition (10 μM), compound at 10 μM in the presence of 10 μM BHL; for Maximum Inhibition (%): E. coli reporter, relative to activation of 10 μM BHL alone
Protocol: as §1
as §2, with “For RhlR antagonism assays, test compounds were competed against a concentration of BHL approximately equal to its EC50 value (10 μM).” left out
as §3
The RhlR-modulatory activity of the J library compounds was assessed in a heterologous reporter strain (E. coli JLD271 harboring plasmids pJN105R2 and pSC11-rhlI*) in order to isolate the RhlR receptor from upstream QS regulation (e.g. regulation by LasR). Thus, the extent to which compounds were directly modulating RhlR could be determined. These assays were performed by incubating compound-treated, mid-log phase E. coli reporter cells in 96-well microtiter plates, followed by Miller assay evaluation of ß-galactosidase activity.
RhlR agonism and antagonism screens of each compound were performed initially at 10 μM.

[4] = negative = agonism stronger than 10 μM BHL alone
[5] = read-out: % inhibition (1 mM), compound at 1 mM in the presence of 10 μM BHL, negative = agonism stronger than 10 μM BHL alone

T2 sequence (P25084 whole entry): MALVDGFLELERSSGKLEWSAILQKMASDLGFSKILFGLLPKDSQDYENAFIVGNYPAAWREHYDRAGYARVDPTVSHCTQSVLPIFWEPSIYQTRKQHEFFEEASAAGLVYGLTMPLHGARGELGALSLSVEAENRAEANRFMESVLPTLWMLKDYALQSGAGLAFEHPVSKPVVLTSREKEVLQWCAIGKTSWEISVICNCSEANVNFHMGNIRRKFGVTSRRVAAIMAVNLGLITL
T1 sequence (P54292 whole entry): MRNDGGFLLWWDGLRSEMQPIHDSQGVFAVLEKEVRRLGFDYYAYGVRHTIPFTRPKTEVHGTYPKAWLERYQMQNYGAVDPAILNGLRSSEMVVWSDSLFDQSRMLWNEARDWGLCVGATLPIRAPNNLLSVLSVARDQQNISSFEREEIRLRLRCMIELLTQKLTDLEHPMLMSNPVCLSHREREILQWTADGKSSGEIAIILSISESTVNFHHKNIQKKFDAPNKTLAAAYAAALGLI

CCCC(=O)N[C@H]1CCOC1=O [BHL, N-butanoyl L-homoserine lactone, reference compound] was tested. Which EC50 (RhlR [1]) did it give?
Its EC50 is 8950 nM.

And the “Hill slope of agonism dose-response” value (RhlR [1]; E. coli reporter)?
Its value is 0.7.

What about the activation at 10 µM (RhlR [1]; E. coli reporter) of the same compound?
Its activation at 10 µM is 51%.

What about the Emax (RhlR [1]) of the same compound?
Its Emax is 100%.

What about the “Fold selectivity of RhlR agonists over LasR agonism” value (from here on “Fold selectivity of RhlR agonists”) (LasR; tested concentration 1 mM) of the same compound?
The value was 18 fold.

What about the “Fold selectivity of RhlR agonists” value (LasR; tested concentration 10 μm) of the same compound?
The value was 56 fold.

And the EC50 (RhlR [2])?
Its EC50 is 8080 nM.

What about the Emax (RhlR [2]) of the same compound?
The Emax was 100%.

Which results are given for CC(C)CC(=O)N[C@H]1CCOC1=O [Compound J18, isovaleryl HL]?
EC50 (RhlR [1]): 1020 nM; fold more potent than the native ligand (RhlR [1]; E. coli reporter, EC50 vs BHL): ~10 fold; activation at 10 µM (RhlR [1]; E. coli reporter): 86%; RhlR agonist potency in words (RhlR [1]; E. coli reporter): significantly more potent than BHL; Emax (RhlR [1]): 105%; RhlR agonist activity in words (RhlR [1]; E. coli reporter): comparable RhlR activation to that of BHL; inhibition at 10 µM (RhlR [3]; [4]): -62%; inhibition at 1000 µM (RhlR [3]; [5]): -123%; Fold selectivity of RhlR agonists over LasR agonism (LasR; tested concentration 1 mM): >99^b fold; Fold selectivity of RhlR agonists over LasR agonism (LasR; tested concentration 10 μm): 255^ fold; EC50 (RhlR [2]): 1420 nM; Emax (RhlR [2]): 94%

How did the EC50 (RhlR [1]) turn out when O=C(N[C@H]1CCOC1=O)C1CCC1 [Compound J24, cyclobutanoyl AHL] was run?
Its EC50 is 1780 nM.

What about the activation at 10 µM (RhlR [1]; E. coli reporter) of the same compound?
Its activation at 10 µM is 79%.

And the “RhlR agonist potency in words” value (RhlR [1]; E. coli reporter)?
The value was “significantly more potent than BHL; also recorded: rivaled in potency that of S4”.

And the Emax (RhlR [1])?
The Emax was 100%.

What about the “RhlR agonist activity in words” value (RhlR [1]; E. coli reporter) of the same compound?
The value was “strong”.

And the inhibition at 10 µM (RhlR [3]; [4])?
Its inhibition at 10 µM is -66%.

And the inhibition at 1000 µM (RhlR [3]; [5])?
Its inhibition at 1000 µM is -110%.

What about the “Fold selectivity of RhlR agonists” value (LasR; tested concentration 1 mM) of the same compound?
The value was 48 fold.

What about the “Fold selectivity of RhlR agonists” value (LasR; tested concentration 10 μm) of the same compound?
Its value is >79^b fold.

And the EC50 (RhlR [2])?
The EC50 was 1410 nM.

And the Emax (RhlR [2])?
Its Emax is 95%.

Which EC50 (RhlR [1]) does the source give for CCCC(=O)N[C@H]1CCSC1=O [RN8] here?
Its EC50 is 4870 nM.

And the activation at 10 µM (RhlR [1]; E. coli reporter)?
Its activation at 10 µM is 71%.

And the Emax (RhlR [1])?
Its Emax is 102%.

And the inhibition at 10 µM (RhlR [3]; [4])?
Its inhibition at 10 µM is -8%.

What about the inhibition at 1000 µM (RhlR [3]; [5]) of the same compound?
Its inhibition at 1000 µM is -75%.

And the “Fold selectivity of RhlR agonists” value (LasR; tested concentration 1 mM)?
The value was 4.5 fold.

What about the “Fold selectivity of RhlR agonists” value (LasR; tested concentration 10 μm) of the same compound?
Its value is 17 fold.

What about the EC50 (RhlR [2]) of the same compound?
Its EC50 is 14300 nM.

And the Emax (RhlR [2])?
Its Emax is 94%.

O=C(N[C@H]1CCSC1=O)C1CCC1 [RN15] was tested. Which EC50 (RhlR [1]) did it give?
Its EC50 is 1720 nM.

And the “RhlR agonist potency in words” value (RhlR [1]; E. coli reporter)?
The value was “equipotent to the cyclobutanoic tail group parent, compound J24”.

What about the Emax (RhlR [1]) of the same compound?
The Emax was 106%.

And the inhibition at 10 µM (RhlR [3]; [4])?
The inhibition at 10 µM was -85%.

What about the inhibition at 1000 µM (RhlR [3]; [5]) of the same compound?
The inhibition at 1000 µM was -114%.

What about the “Fold selectivity of RhlR agonists” value (LasR; tested concentration 1 mM) of the same compound?
The value was 11 fold.

What about the “Fold selectivity of RhlR agonists” value (LasR; tested concentration 10 μm) of the same compound?
The value was >88^b fold.

And the EC50 (RhlR [2])?
The EC50 was 1650 nM.

And the Emax (RhlR [2])?
Its Emax is 90%.

Which results are given for O=C(COc1ccc(I)cc1)NC1CCCC1 [RN17]?
activation at 10 µM (RhlR [1]; E. coli reporter): 1%; Maximum Inhibition (%) (RhlR [3]): 31%; inhibition at 10 µM (RhlR [3]; [4]): 6%; inhibition at 1000 µM (RhlR [3]; read-out: % inhibition (1 mM), screened at a maximal concentration of 100 microM (solubility), in the presence of 10 μM BHL): 24%

With O=C(COc1ccc(I)cc1)NCC1CCCO1 (centres unmarked) [RN23] as the compound, how does the activation at 10 µM (RhlR [1]; E. coli reporter) read?
The activation at 10 µM was 0%.

What about the IC50 (RhlR [3]) of the same compound?
Its IC50 is > 100000 nM.

What about the “RhlR antagonist activity in words” value (RhlR [3]; E. coli reporter vs 10 μM BHL) of the same compound?
Its value is “potent antagonist activity; also recorded: negligible maximum potency difference from its head group parent compound RN10”.

And the “Maximum Inhibition (%)” value (RhlR [3])?
Its value is 56%.

And the inhibition at 10 µM (RhlR [3]; [4])?
Its inhibition at 10 µM is 6%.

What about the inhibition at 1000 µM (RhlR [3]; [5]) of the same compound?
Its inhibition at 1000 µM is > 50%.

CC(C)CC(=O)NC1CCCC1 [RN39] was tested. Which activation at 10 µM (RhlR [1]; E. coli reporter) did it give?
Its activation at 10 µM is 0%.

What about the inhibition at 10 µM (RhlR [3]; [4]) of the same compound?
Its inhibition at 10 µM is 11%.

What about the inhibition at 1000 µM (RhlR [3]; [5]) of the same compound?
The inhibition at 1000 µM was 31%.
